# In patent US12076399B2, “Combination therapies for treating cancers” (Cothera Bioscience, Inc., priority 2017, dated 2024):
# Assays:
# Assay in all cases: Ex vivo drug sensitivity test (EdU proliferation, EpCAM+ cells, high-content imaging) on conditionally reprogrammed patient-derived tumor cells
# Assay type in all cases: cell-based, human
# [1] = tested on: patient-derived epithelial tumor cells, colon; settings: EpCAM and Edu positive readout, AUC concentration
# From the text: (§1) Surgical specimen from colorectal cancer patients, liver cancer patients, lung cancer patients, pancreatic cancer, gastric cancer patients and breast cancer patients were obtained from the Beijing Cancer Hospital and the Cancer Hospital of Chinese Academy of Medical Science after receiving patient consensus. Patient-derived xenograft tumor specimens were obtained from Nod/SCID mice inoculated with surgical tumor specimen from patients.
# (§2) For ex vivo drug sensitivity assays, the tumor cells were isolated from the patient tissue sample or PDX xenograft tumor tissue. Briefly, the tumor tissues were cut into small pieces less than 1 mm in diameter using scissors. The tumor fragments were transferred into a sterile 100-ml triangle glass flask loaded with a magnet stir bar. A 10-15 ml digestion media containing 0.25 U/ml Liberase DH was added into the minced tumor tissues to start enzyme digestion. The enzyme mixture was incubated at 37° C. for 1-2 hours with moderate stirring. The digested tumor tissue was filtered through a 100-μm cell retainer. The filtrates were re-filtered through a 40-μm cell restrainer. The tumor cell clusters retained on the 40-μm cell restrainer was collected, wash twice with HBSS, then re-suspended in a defined growth media supplemented with several stem cell growth factors.
# (§3) The tumor cell clusters retained on the 40-μm cell restrainer were collected, wash twice with HBSS, then re-suspended in a defined growth media supplemented with cell growth factors and small molecule inhibitors. The tumor cell clusters were recovered in a defined growth medium overnight. The defined growth medium was StemPro® hESC SFM (defined, serum- and feeder-free medium (SFM)) supplemented with: Nicotinamide, Wnt3A, Noggin (Bone Morphogenetic Protein (BMP) inhibitor), R-spondin-1 (Wnt/β-catenin signaling agonist), and Y27632 (Rho-associated, coiled-coil containing protein kinase (ROCK-1) inhibitor).
# (§4) For conditional reprogramming, the recovered CTOSs were dissociated into single cells and seeded in a feeder cell/Rock inhibitor (Y27632) co-culture system at about 3000 cells per well in cell culture plate, and grow at 37 C for 3 days.
# (§5) For ex vivo drug testing, the seeded tumor cells were exposed to seven EGFR inhibitors, three MEK 1/2 inhibitors, and three CDK 4/6 inhibitors alone, or a combination of EGFR inhibitor and MEK 1/2 inhibitor, a combination of EGFR inhibitor and CDK 4/6 inhibitor, a combination of MEK 1/2 inhibitor and CDK 4/6 inhibitor, and a triple combination of EGFR inhibitor, MEK 1/2 inhibitor, and a CDK 4/6 inhibitor for 72 hours. The treated tumor cells were re-exposed to the same drug or drug combination with a fresh media change for another 72 hours. All drugs were prepared in DMSO and the final concentration of DMSO in media was 0.1%. The tested concentration of the drug and drug combinations were at relevant AUC concentration (see Table E1).
# (§6) Following exposure with drug, the epithelial tumor cells were labeled with 5-ethynyl-2′-deoxyuridine (Edu) to assess the tumor cell proliferation rates. The labeling lasted 24 hours in the presence of drug exposure. In the control group, epithelial tumor cells received no drug exposure with media change, but were similarly labeled with Edu. The labeled tumor cell were fixed and stained with Hoechst 33342 in blocking buffer containing 0.5% Triton X-100 and 3% BSA overnight at 4° C. The tumor cells were incubated with EpCAM antibody (1:4000) for 2 hours at room temperature and rinsed with PBST. Subsequently, the tumor cells were incubated with Alexa FluorR 647 conjugated goat-anti-mouse secondary antibody for 30 minutes at room temperature and rinsed with PBST.
# (§7) The incorporated Edu was detected by Click-iT reaction where fixed cells were incubated with a reaction mixture containing 1× Click-iT Edu reaction buffer, CuSO4, and azide-conjugated Alexa Fluor dye in the dark. The stained cells were washed with PBS two times before image acquisition and analysis. […]
# [2] = tested on: patient-derived epithelial tumor cells, gastric; settings: EpCAM and Edu positive readout, AUC concentration
# From the text: as §1, §2, §3, §4, §5, §6, §7
# [3] = tested on: patient-derived epithelial tumor cells, pancrea; settings: patient ZKB-011, pancrea; EpCAM and Edu positive readout; AUC concentration
# From the text: as §1, §2, §3, §4, §5, §6, §7
smiles,measurement,setting,value
"CC(C)(C)c1nc(-c2cccc(NS(=O)(=O)c3c(F)cccc3F)c2F)c(-c2ccnc(N)n2)s1 [D, Dabrafenib]",Inhibition percentage,"[1]; patient NYL-040, colon",7.18%
same,MI (Maximum Inhibition Index),"[1]; patient NYL-040, colon",1.08
same,Inhibition percentage,"[1]; patient NYL-053, colon",9.11%
same,MI (Maximum Inhibition Index),"[1]; patient NYL-053, colon",1.10
same,Inhibition percentage,"[1]; patient NYL-109, colon",34.25%
same,MI (Maximum Inhibition Index),"[1]; patient NYL-109, colon",1.52
same,Inhibition percentage,"[1]; patient NYL-113, colon",−3.84%
same,MI (Maximum Inhibition Index),"[1]; patient NYL-113, colon",0.96
same,Inhibition percentage,"[1]; patient NYL-132, colon",29.59%
same,MI (Maximum Inhibition Index),"[1]; patient NYL-132, colon",1.42
same,Inhibition percentage,"[1]; patient NYL-149, colon",75.06%
same,MI (Maximum Inhibition Index),"[1]; patient NYL-149, colon",4.01
same,Inhibition percentage,"[1]; patient NYL-161, colon",−6.33%
same,MI (Maximum Inhibition Index),"[1]; patient NYL-161, colon",0.94
same,Inhibition percentage,"[1]; patient NYL-170, colon",52.58%
same,MI (Maximum Inhibition Index),"[1]; patient NYL-170, colon",2.11
same,Inhibition percentage,"[1]; patient NYL-HZ-002, colon",0.00%
same,MI (Maximum Inhibition Index),"[1]; patient NYL-HZ-002, colon",0.83
same,Inhibition percentage,"[1]; patient ZKB-007, colon",0.00%
same,MI (Maximum Inhibition Index),"[1]; patient ZKB-007, colon",0.91
same,Inhibition percentage,"[1]; patient ZKB-070, colon",15.53%
same,MI (Maximum Inhibition Index),"[1]; patient ZKB-070, colon",1.18
same,Inhibition percentage,"[1]; patient ZKB-171, colon",15.07%
same,MI (Maximum Inhibition Index),"[1]; patient ZKB-171, colon",1.18
same,Inhibition percentage,"[2]; patient NYP-006, gastric",0.00%
same,MI (Maximum Inhibition Index),"[2]; patient NYP-006, gastric",0.47
same,Inhibition percentage,"[2]; patient ZKB-165, gastric",45.31%
same,MI (Maximum Inhibition Index),"[2]; patient ZKB-165, gastric",1.83
same,Inhibition percentage,[3],0.00%
same,MI (Maximum Inhibition Index),[3],1.00
"CC(=O)c1c(C)c2cnc(Nc3ccc(N4CCNCC4)cn3)nc2n(C2CCCC2)c1=O [P, Palbociclib]",Inhibition percentage,"[1]; patient CKY-041, colon",9.05%
same,MI (Maximum Inhibition Index),"[1]; patient CKY-041, colon",1.10
same,Inhibition percentage,"[1]; patient NYL-040, colon",85.02%
same,MI (Maximum Inhibition Index),"[1]; patient NYL-040, colon",6.68
same,Inhibition percentage,"[1]; patient NYL-053, colon",63.04%
same,MI (Maximum Inhibition Index),"[1]; patient NYL-053, colon",2.71
same,Inhibition percentage,"[1]; patient NYL-109, colon",40.42%
same,MI (Maximum Inhibition Index),"[1]; patient NYL-109, colon",1.68
same,Inhibition percentage,"[1]; patient NYL-113, colon",44.25%
same,MI (Maximum Inhibition Index),"[1]; patient NYL-113, colon",1.79
same,Inhibition percentage,"[1]; patient NYL-132, colon",48.53%
same,MI (Maximum Inhibition Index),"[1]; patient NYL-132, colon",1.94
same,Inhibition percentage,"[1]; patient NYL-149, colon",57.40%
same,MI (Maximum Inhibition Index),"[1]; patient NYL-149, colon",2.35
same,Inhibition percentage,"[1]; patient NYL-161, colon",26.16%
same,MI (Maximum Inhibition Index),"[1]; patient NYL-161, colon",1.35
same,Inhibition percentage,"[1]; patient NYL-170, colon",67.64%
same,MI (Maximum Inhibition Index),"[1]; patient NYL-170, colon",3.09
same,Inhibition percentage,"[1]; patient NYL-HZ-002, colon",52.48%
same,MI (Maximum Inhibition Index),"[1]; patient NYL-HZ-002, colon",2.10
same,Inhibition percentage,"[1]; patient ZKB-007, colon",66.72%
same,MI (Maximum Inhibition Index),"[1]; patient ZKB-007, colon",3.00
same,Inhibition percentage,"[1]; patient ZKB-070, colon",77.00%
same,MI (Maximum Inhibition Index),"[1]; patient ZKB-070, colon",4.35
same,Inhibition percentage,"[1]; patient ZKB-171, colon",30.13%
same,MI (Maximum Inhibition Index),"[1]; patient ZKB-171, colon",1.43
same,Inhibition percentage,"[2]; patient NYP-006, gastric",65.36%
same,MI (Maximum Inhibition Index),"[2]; patient NYP-006, gastric",2.89
same,Inhibition percentage,"[2]; patient ZKB-165, gastric",86.45%
same,MI (Maximum Inhibition Index),"[2]; patient ZKB-165, gastric",7.38
same,Inhibition percentage,[3],85.40%
same,MI (Maximum Inhibition Index),[3],6.85
"CC(=O)Nc1cccc(-n2c(=O)n(C3CC3)c(=O)c3c(Nc4ccc(I)cc4F)n(C)c(=O)c(C)c32)c1 [T, Trametinib]",Inhibition percentage,"[1]; patient CKY-041, colon",5.05%
same,MI (Maximum Inhibition Index),"[1]; patient CKY-041, colon",1.05
same,Inhibition percentage,"[1]; patient NYL-040, colon",0.00%
same,MI (Maximum Inhibition Index),"[1]; patient NYL-040, colon",0.85
same,Inhibition percentage,"[1]; patient NYL-053, colon",49.02%
same,MI (Maximum Inhibition Index),"[1]; patient NYL-053, colon",1.96
same,Inhibition percentage,"[1]; patient NYL-109, colon",86.79%
same,MI (Maximum Inhibition Index),"[1]; patient NYL-109, colon",7.57
same,Inhibition percentage,"[1]; patient NYL-113, colon",46.31%
same,MI (Maximum Inhibition Index),"[1]; patient NYL-113, colon",1.86
same,Inhibition percentage,"[1]; patient NYL-132, colon",29.60%
same,MI (Maximum Inhibition Index),"[1]; patient NYL-132, colon",1.42
same,Inhibition percentage,"[1]; patient NYL-149, colon",75.78%
same,MI (Maximum Inhibition Index),"[1]; patient NYL-149, colon",4.13
same,Inhibition percentage,"[1]; patient NYL-161, colon",0.59%
same,MI (Maximum Inhibition Index),"[1]; patient NYL-161, colon",1.01
same,Inhibition percentage,"[1]; patient NYL-170, colon",0.00%
same,MI (Maximum Inhibition Index),"[1]; patient NYL-170, colon",0.61
same,Inhibition percentage,"[1]; patient NYL-HZ-002, colon",51.53%
same,MI (Maximum Inhibition Index),"[1]; patient NYL-HZ-002, colon",2.06
same,Inhibition percentage,"[1]; patient ZKB-007, colon",0.00%
same,MI (Maximum Inhibition Index),"[1]; patient ZKB-007, colon",0.76
same,Inhibition percentage,"[1]; patient ZKB-070, colon",−34.50%
same,MI (Maximum Inhibition Index),"[1]; patient ZKB-070, colon",0.74
same,Inhibition percentage,"[1]; patient ZKB-171, colon",46.02%
same,MI (Maximum Inhibition Index),"[1]; patient ZKB-171, colon",1.85
same,Inhibition percentage,"[2]; patient NYP-006, gastric",0.00%
same,MI (Maximum Inhibition Index),"[2]; patient NYP-006, gastric",0.55
same,Inhibition percentage,"[2]; patient ZKB-165, gastric",0.00%
same,MI (Maximum Inhibition Index),"[2]; patient ZKB-165, gastric",0.60
same,Inhibition percentage,[3],7.36%
same,MI (Maximum Inhibition Index),[3],1.08
